# Legend:
# ULK2 = target: T1, ULK2 (Homo sapiens, UniProt Q8IYT8); test: Kinase panel (Millipore); format: biochemical; settings: 1 µM, ATP at Km
# T1 construct: purchased Millipore (KinaseProfiler) kinase panel
# GABA transporter = settings: 10 µM, antagonist radioligand
# PI3K GAMMA = PI3K GAMMA (Homo sapiens, UniProt P48736); test: Kinase panel (Millipore); format: biochemical; settings: 1 µM, ATP at Km
# MEK1 = MEK1 (Homo sapiens, UniProt Q02750); test: Kinase panel (Millipore); format: biochemical; settings: 1 µM, ATP at Km
# ALK4 = target: T2, ALK4 (Homo sapiens, UniProt P36896); test: Kinase panel (Millipore); format: biochemical; settings: 1 µM, ATP at Km
# T2 construct: purchased Millipore (KinaseProfiler) kinase panel
# SAPK2B = SAPK2B (Homo sapiens, UniProt Q15759); test: Kinase panel (Millipore); format: biochemical; settings: 1 µM, ATP at Km
# CKIT(V654A) = CKIT(V654A) (Homo sapiens, UniProt P10721, V654A); settings: 1 µM, ATP at Km
# PKBALPHA = PKBALPHA (Homo sapiens, UniProt P31749); test: Kinase panel (Millipore); format: biochemical; settings: 1 µM, ATP at Km
# EGFR(T790M) = EGFR(T790M) (Homo sapiens, UniProt P00533, T790M); settings: 1 µM, ATP at Km
# EPHA8 = target: T3, EPHA8 (Homo sapiens, UniProt P29322); test: Kinase panel (Millipore); format: biochemical; settings: 1 µM, ATP at Km
# T3 construct: purchased Millipore (KinaseProfiler) kinase panel
# CLK2 = CLK2 (Homo sapiens, UniProt P49760); test: Kinase panel (Millipore); format: biochemical; settings: 1 µM, ATP at Km
# ITK = target: T4, ITK (Homo sapiens, UniProt Q08881); test: Kinase panel (Millipore); format: biochemical; settings: 1 µM, ATP at Km
# T4 construct: purchased Millipore (KinaseProfiler) kinase panel
# motilin (h) = motilin (h) (Homo sapiens, UniProt O43193); test: CEREP binding assay; settings: agonist radioligand, read-out: % Inhibition of Control Specific Binding
# PIM-2 = PIM-2 (Homo sapiens, UniProt Q9P1W9); test: Kinase panel (Millipore); format: biochemical; settings: 1 µM, ATP at Km
# ROS = target: T5, ROS (Homo sapiens, UniProt P08922); test: Kinase panel (Millipore); format: biochemical; settings: 1 µM, ATP at Km
# T5 construct: purchased Millipore (KinaseProfiler) kinase panel
# NLK = target: T6, NLK (Homo sapiens, UniProt Q9UBE8); test: Kinase panel (Millipore); format: biochemical; settings: 1 µM, ATP at Km
# T6 construct: purchased Millipore (KinaseProfiler) kinase panel
# GSK3BETA = GSK3BETA (Homo sapiens, UniProt P49841); test: Kinase panel (Millipore); format: biochemical; settings: 1 µM, ATP at Km
# CKIT(D816H) = CKIT(D816H) (Homo sapiens, UniProt P10721, D816H); settings: 1 µM, ATP at Km
# DDR2 = DDR2 (Homo sapiens, UniProt Q16832); test: Kinase panel (Millipore); format: biochemical; settings: 1 µM, ATP at Km
# SRC(1-530) = SRC(1-530) (Homo sapiens, UniProt P12931); test: Kinase panel (Millipore); format: biochemical; settings: 1 µM, ATP at Km
# PDK1 = PDK1 (Homo sapiens, UniProt O15530); test: Kinase panel (Millipore); format: biochemical; settings: 1 µM, ATP at Km
# AT2 (h) = target: T7, AT2 (h) (Homo sapiens, UniProt P50052); test: CEREP binding assay; settings: agonist radioligand, read-out: % Inhibition of Control Specific Binding
# T7 construct: purchased Millipore (KinaseProfiler) kinase panel
# FGFR4 = FGFR4 (Homo sapiens, UniProt P22455); test: Kinase panel (Millipore); format: biochemical; settings: 1 µM, ATP at Km
# MER = target: T8, MER (Homo sapiens, UniProt Q12866); test: Kinase panel (Millipore); format: biochemical; settings: 1 µM, ATP at Km
# T8 construct: purchased Millipore (KinaseProfiler) kinase panel
# […](D842V) = […](D842V) (Homo sapiens, UniProt P16234, D842V); settings: 1 µM, ATP at Km
# PYK2 = target: T9, PYK2 (Homo sapiens, UniProt Q14289); test: Kinase panel (Millipore); format: biochemical; settings: 1 µM, ATP at Km
# T9 construct: purchased Millipore (KinaseProfiler) kinase panel
# FMS(Y969C) = FMS(Y969C) (Homo sapiens, UniProt P07333, Y969C); settings: 1 µM, ATP at Km
# PAK4 = target: T10, PAK4 (Homo sapiens, UniProt O96013); test: Kinase panel (Millipore); format: biochemical; settings: 1 µM, ATP at Km
# T10 construct: purchased Millipore (KinaseProfiler) kinase panel
# RSK4 = target: T11, RSK4 (Homo sapiens, UniProt Q9UK32); test: Kinase panel (Millipore); format: biochemical; settings: 1 µM, ATP at Km
# T11 construct: purchased Millipore (KinaseProfiler) kinase panel
# MAPKAP-K3 = target: T12, MAPKAP-K3 (Homo sapiens, UniProt Q16644); test: Kinase panel (Millipore); format: biochemical; settings: 1 µM, ATP at Km
# T12 construct: purchased Millipore (KinaseProfiler) kinase panel
# IRAK4 = IRAK4 (Homo sapiens, UniProt Q9NWZ3); test: Kinase panel (Millipore); format: biochemical; settings: 1 µM, ATP at Km
# FGFR2(N549H) = FGFR2(N549H) (Homo sapiens, UniProt P21802, N549H); settings: 1 µM, ATP at Km
# BTK(R28H) = BTK(R28H) (Homo sapiens, UniProt Q06187, R28H); settings: 1 µM, ATP at Km
# BRSK1 = target: T13, BRSK1 (Homo sapiens, UniProt Q8TDC3); test: Kinase panel (Millipore); format: biochemical; settings: 1 µM, ATP at Km
# T13 construct: purchased Millipore (KinaseProfiler) kinase panel
# MST2 = target: T14, MST2 (Homo sapiens, UniProt Q13188); test: Kinase panel (Millipore); format: biochemical; settings: 1 µM, ATP at Km
# T14 construct: purchased Millipore (KinaseProfiler) kinase panel
# MC3 (h) = target: T15, MC3 (h) (Homo sapiens, UniProt P41968); test: CEREP binding assay; settings: agonist radioligand, read-out: % Inhibition of Control Specific Binding
# T15 construct: purchased Millipore (KinaseProfiler) kinase panel
# LKB1 = target: T16, LKB1 (Homo sapiens, UniProt Q15831); test: Kinase panel (Millipore); format: biochemical; settings: 1 µM, ATP at Km
# T16 construct: purchased Millipore (KinaseProfiler) kinase panel
# alpha 1B (h) = alpha 1B (h) (Homo sapiens, UniProt P35368); test: biochemical; settings: read-out: % Inhibition of Control Specific Binding
# SIK = target: T17, SIK (Homo sapiens, UniProt P57059); test: Kinase panel (Millipore); format: biochemical; settings: 1 µM, ATP at Km
# T17 construct: purchased Millipore (KinaseProfiler) kinase panel
# DCAMKL2 = target: T18, DCAMKL2 (Homo sapiens, UniProt Q8N568); test: Kinase panel (Millipore); format: biochemical; settings: 1 µM, ATP at Km
# T18 construct: purchased Millipore (KinaseProfiler) kinase panel
# CHK2(R145W) = CHK2(R145W) (Homo sapiens, UniProt O96017, R145W); settings: 1 µM, ATP at Km
# TIE2 = target: T19, TIE2 (Homo sapiens, UniProt Q02763); test: Kinase panel (Millipore); format: biochemical; settings: 1 µM, ATP at Km
# T19 construct: purchased Millipore (KinaseProfiler) kinase panel
# SGK3 = target: T20, SGK3 (Homo sapiens, UniProt Q96BR1); test: Kinase panel (Millipore); format: biochemical; settings: 1 µM, ATP at Km
# T20 construct: purchased Millipore (KinaseProfiler) kinase panel
# Chain of FGFR2(N549H) (P21802 22-821 N549H): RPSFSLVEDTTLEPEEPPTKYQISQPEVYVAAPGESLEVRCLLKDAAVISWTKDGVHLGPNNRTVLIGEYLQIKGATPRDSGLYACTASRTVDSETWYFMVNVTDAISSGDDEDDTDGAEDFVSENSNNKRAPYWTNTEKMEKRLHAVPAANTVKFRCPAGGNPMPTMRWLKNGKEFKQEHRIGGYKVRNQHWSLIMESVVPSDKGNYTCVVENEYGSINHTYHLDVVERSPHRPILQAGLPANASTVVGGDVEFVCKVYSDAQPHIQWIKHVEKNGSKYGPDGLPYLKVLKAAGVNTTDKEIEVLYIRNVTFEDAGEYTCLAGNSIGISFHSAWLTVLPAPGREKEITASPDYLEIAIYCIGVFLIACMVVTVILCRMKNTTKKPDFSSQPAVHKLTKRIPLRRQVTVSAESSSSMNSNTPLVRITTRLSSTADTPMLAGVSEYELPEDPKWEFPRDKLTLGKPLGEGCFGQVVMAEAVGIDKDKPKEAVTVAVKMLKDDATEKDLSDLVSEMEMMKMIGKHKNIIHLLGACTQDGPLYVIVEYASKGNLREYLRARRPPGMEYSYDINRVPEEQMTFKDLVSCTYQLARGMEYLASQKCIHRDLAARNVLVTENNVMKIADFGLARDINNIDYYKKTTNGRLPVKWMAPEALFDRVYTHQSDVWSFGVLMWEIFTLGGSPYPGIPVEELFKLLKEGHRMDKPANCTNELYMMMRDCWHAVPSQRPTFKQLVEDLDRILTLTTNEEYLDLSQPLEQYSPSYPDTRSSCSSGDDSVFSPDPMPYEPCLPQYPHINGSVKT
# T9 sequence (Q14289 whole entry): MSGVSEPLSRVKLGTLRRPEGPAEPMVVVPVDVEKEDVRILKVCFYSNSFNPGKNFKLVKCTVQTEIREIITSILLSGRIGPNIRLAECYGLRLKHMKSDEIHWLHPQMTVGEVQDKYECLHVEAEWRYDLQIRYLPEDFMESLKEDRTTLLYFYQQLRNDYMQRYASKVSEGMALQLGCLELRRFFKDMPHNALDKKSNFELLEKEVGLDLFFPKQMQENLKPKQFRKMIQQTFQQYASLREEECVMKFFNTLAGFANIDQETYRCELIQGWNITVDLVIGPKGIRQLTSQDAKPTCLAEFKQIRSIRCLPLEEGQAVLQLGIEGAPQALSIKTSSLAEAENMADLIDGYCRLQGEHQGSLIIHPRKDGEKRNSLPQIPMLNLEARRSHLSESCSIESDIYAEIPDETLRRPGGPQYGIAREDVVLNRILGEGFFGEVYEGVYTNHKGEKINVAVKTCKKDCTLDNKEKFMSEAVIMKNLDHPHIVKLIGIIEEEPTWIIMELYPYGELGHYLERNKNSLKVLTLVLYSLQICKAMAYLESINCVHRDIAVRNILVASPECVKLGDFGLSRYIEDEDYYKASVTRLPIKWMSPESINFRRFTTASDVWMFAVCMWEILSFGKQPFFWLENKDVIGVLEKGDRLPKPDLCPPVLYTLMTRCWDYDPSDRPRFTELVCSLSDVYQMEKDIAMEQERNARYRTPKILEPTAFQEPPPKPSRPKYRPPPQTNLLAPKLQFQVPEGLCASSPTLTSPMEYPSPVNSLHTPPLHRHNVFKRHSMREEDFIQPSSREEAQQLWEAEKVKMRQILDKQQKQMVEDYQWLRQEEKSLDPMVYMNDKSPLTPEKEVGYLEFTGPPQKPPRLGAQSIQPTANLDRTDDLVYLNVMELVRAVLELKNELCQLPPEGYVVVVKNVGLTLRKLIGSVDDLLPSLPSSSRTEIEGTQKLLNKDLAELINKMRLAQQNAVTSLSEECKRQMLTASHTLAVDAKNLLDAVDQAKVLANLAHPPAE
# Chain of CKIT(V654A) (P10721 544-976 V654A limits assumed): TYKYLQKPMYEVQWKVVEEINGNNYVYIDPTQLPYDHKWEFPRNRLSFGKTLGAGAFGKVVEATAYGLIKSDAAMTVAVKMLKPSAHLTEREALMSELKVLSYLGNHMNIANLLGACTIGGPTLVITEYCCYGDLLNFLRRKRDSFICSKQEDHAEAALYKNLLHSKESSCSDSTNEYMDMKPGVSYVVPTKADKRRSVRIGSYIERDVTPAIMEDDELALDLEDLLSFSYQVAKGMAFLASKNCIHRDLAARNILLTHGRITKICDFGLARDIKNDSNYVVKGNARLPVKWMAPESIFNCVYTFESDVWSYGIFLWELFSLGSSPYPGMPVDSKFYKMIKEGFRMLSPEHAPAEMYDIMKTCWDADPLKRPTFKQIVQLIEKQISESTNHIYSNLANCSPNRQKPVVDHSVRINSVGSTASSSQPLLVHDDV
# T6 sequence (Q9UBE8 whole entry): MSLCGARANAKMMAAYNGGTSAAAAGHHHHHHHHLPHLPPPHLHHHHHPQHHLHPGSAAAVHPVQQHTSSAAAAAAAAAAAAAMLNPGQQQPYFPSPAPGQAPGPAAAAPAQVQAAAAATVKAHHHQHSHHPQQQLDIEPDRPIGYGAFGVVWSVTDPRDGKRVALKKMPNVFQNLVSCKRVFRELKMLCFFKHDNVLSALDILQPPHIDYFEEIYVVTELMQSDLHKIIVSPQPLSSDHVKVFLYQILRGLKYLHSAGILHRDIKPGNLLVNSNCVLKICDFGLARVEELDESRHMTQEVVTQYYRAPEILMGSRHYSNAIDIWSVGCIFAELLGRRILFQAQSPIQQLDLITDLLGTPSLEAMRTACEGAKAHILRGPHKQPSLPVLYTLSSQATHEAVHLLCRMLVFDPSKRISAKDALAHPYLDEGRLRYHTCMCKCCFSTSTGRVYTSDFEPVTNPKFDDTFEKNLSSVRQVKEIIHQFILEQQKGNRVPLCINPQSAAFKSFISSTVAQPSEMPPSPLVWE
# Chain of CLK2 (P49760 whole entry): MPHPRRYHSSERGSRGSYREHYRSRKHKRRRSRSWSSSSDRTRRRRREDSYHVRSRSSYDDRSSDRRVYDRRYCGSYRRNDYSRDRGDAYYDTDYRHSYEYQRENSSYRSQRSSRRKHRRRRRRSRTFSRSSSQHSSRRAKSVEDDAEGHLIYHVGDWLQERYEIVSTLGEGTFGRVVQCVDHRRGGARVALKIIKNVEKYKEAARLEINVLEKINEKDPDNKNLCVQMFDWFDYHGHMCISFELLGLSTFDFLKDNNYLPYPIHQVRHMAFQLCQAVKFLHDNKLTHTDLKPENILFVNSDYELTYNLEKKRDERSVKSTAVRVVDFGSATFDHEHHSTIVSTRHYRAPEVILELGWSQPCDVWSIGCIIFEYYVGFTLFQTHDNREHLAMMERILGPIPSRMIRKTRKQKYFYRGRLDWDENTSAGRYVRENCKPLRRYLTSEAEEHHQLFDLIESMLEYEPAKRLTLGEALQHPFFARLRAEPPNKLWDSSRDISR
# T1 sequence (Q8IYT8 whole entry): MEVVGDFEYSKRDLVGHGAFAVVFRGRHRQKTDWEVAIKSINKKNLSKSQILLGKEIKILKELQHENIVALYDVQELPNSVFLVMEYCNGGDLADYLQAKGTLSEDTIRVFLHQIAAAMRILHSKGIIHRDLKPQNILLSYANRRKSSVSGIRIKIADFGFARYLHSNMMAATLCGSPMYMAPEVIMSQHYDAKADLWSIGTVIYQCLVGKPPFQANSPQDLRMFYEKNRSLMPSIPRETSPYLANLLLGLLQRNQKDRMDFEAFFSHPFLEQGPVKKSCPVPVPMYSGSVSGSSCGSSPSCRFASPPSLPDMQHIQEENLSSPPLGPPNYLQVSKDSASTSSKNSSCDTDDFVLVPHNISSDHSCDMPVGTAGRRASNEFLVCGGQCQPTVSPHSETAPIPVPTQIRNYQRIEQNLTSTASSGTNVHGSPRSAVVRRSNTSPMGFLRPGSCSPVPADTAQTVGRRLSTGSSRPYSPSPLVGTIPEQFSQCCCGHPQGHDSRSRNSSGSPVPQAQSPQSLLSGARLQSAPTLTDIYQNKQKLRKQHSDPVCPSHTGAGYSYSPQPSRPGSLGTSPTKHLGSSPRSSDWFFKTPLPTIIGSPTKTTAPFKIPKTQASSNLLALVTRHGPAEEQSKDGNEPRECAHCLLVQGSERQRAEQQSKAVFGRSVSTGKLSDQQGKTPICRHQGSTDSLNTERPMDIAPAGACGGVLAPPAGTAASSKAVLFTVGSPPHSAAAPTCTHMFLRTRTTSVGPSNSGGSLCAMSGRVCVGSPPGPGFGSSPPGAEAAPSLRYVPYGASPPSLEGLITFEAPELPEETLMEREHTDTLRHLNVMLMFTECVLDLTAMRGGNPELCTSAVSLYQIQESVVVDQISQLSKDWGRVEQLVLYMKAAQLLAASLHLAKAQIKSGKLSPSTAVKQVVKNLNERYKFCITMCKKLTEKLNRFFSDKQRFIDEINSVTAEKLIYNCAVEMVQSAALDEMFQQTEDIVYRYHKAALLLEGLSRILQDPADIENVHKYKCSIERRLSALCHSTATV
# Chain of MEK1 (Q02750 whole entry): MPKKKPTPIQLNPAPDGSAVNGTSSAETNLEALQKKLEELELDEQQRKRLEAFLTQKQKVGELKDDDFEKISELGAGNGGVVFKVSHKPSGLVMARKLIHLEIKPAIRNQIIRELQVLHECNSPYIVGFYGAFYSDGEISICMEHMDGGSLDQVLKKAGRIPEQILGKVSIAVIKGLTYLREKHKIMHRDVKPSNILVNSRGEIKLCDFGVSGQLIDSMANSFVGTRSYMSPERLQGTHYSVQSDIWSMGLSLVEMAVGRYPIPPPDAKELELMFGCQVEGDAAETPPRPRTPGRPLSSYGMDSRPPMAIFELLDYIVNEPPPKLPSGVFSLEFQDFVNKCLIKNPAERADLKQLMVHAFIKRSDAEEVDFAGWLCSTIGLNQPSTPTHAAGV
# Chain of PIM-2 (Q9P1W9 whole entry): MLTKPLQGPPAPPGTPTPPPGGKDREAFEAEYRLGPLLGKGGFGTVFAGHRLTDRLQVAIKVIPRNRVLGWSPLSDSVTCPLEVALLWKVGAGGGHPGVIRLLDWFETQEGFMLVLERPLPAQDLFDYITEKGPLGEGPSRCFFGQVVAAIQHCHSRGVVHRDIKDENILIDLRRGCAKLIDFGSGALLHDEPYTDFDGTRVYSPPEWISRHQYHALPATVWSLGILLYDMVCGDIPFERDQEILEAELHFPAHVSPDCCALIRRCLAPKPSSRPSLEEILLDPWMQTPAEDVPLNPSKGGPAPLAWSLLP
compound,measurement,setting,value
"Cn1ncc2cc(-c3cnc(N)c(Cl)c3N3CCC4(CCNC4=O)CC3)ccc21 [Compound 109, 8-(2-Amino-3-chloro-5-(1-methyl-1H-indazol-5-yl)pyridin-4-yl)-2,8-diazaspiro[4.5]decan-1-one]",% effect,ULK2,12%
same,% Inhibition of Control Specific Binding,GABA transporter,3%
same,% effect,PI3K GAMMA,7%
same,% effect,MEK1,-13%
same,% effect,ALK4,2%
same,% effect,SAPK2B,-3%
same,% effect,CKIT(V654A),9%
same,% effect,PKBALPHA,3%
same,% effect,EGFR(T790M),11%
same,% effect,EPHA8,-9%
same,% effect,CLK2,-2%
same,% effect,ITK,-9%
same,inhibition at 10 µM,motilin (h),12%
same,% effect,PIM-2,-1%
same,% effect,ROS,8%
same,% effect,NLK,-5%
same,% effect,GSK3BETA,-11%
same,% effect,CKIT(D816H),1%
same,% effect,DDR2,19%
same,% effect,SRC(1-530),0%
same,% effect,PDK1,1%
same,inhibition at 10 µM,AT2 (h),6%
same,% effect,FGFR4,6%
same,% effect,MER,11%
same,% effect,[…](D842V),-10%
same,% effect,PYK2,-2%
same,% effect,FMS(Y969C),-43%
same,% effect,PAK4,-1%
same,% effect,RSK4,-6%
same,% effect,MAPKAP-K3,5%
same,% effect,IRAK4,6%
same,% effect,FGFR2(N549H),1%
same,% effect,BTK(R28H),2%
same,% effect,BRSK1,7%
same,% effect,MST2,-11%
same,inhibition at 10 µM,MC3 (h),-24%
same,% effect,LKB1,5%
same,inhibition at 10 µM,alpha 1B (h),15%
same,% effect,SIK,-1%
same,% effect,DCAMKL2,-3%
same,% effect,CHK2(R145W),7%
same,% effect,TIE2,14%
same,% effect,SGK3,13%

# — publication PMC5362750, “Discovery of Potent, Selective, and Orally Bioavailable Small-Molecule Modulators of the Mediator Complex-Associated Kinases CDK8 and CDK19” (Journal of Medicinal Chemistry, 2016)
